This assay has as its system Nrf2. The experiment in a line: Ergothioneine-induced Nrf2 nuclear translocation after kinase inhibitor pretreatment (Western blot). The conditions noted are these: inhibitor 2.5 μM 30 minutes, then 500 nM ergothioneine 1 hour. It counts as cell-based, human. As to the method:
Given that the ergothioneine can activate the Nrf2 to induce the expression of the downstream antioxidant genes; this example further investigates the pathway of the Nrf2 activated by the ergothioneine.
The HaCaT cells are incubated with respective pharmacological inhibitors of p38 (SB203580; 20 μM), ERK (PD98059; 20 μM), JNK (SP600125; 20 μM), PI3K (LY294002; 20 μM), PKC (GF109203X; 2.5 μM), or ROS (NAC; 1 mM) for 30 minutes, and then incubated with 500 nM ergothioneine for 1 hour. After the incubation, nuclear extracts and cytosolic extracts are collected to observe the expression of the Nrf2 nuclear translocation. FIG. 12 illustrates that the ergothioneine induces a Nrf2-mediated antioxidant signaling pathway. The data result is represented by mean±SD values; n=3, wherein * represents ρ<0.05 compared to the control group.
(Immunoblotting shows a protein as a band on a membrane.)

Each structure is given as a SMILES string.

Regarding `CN(C)CCCn1cc(C2=C(c3c[nH]c4ccccc34)C(=O)NC2=O)c2ccccc21` [GF109203X], the “expression of the Nrf2 nuclear translocation” value is “significantly inhibited”.

The record behind these values is patent US20160067221A1, “USE OF ERGOTHIONEINE FOR INDUCING ACTIVITY OF NRF2 IN CELL” (China Medical University, priority 2014, published 2016).
